Among the data in patent US10821115B2, “Compounds that inhibit Mcl-1 protein” (priority 2017, dated 2020) are IC50 values, retold here.

Test [1] concerns human multiple myeloma cell line, OPM-2. Put plainly: Cell viability assay (OPM-2 10 FBS), CellTiter-Glo. The test is classed as cell-based. A digest of the protocol: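 3000 cells/well, RPMI 1640 + 10% FBS; serial compound dilutions, 16 h, 37 °C/5% CO2.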
In test [2] the target is recombinant human Mcl-1 (residues 171-327) / Bim interaction (Homo sapiens (Human), UniProt Q07820). Put plainly: biochemical. The settings on record: read-out: Mcl-1 HTRF IC50. The class given is binding. Background: In TR-FRET formats the signal depends on donor and acceptor labels being close together.
Sequence of recombinant human Mcl-1 (residues 171-327) / Bim interaction (Q07820 171-327): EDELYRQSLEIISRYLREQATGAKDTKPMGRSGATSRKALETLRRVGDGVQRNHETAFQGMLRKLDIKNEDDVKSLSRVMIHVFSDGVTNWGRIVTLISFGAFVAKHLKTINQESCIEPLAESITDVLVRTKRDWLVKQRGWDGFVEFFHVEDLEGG
Where [3] appears, read: read-out: OPM-2 10% FBS IC50 IP, OPM-2 cells, 10% FBS, 16 h, CellTiter-Glo.
Setting [4] is: TR-FRET, Mcl-1(171-327) / biotin-Bim (51-76).
The mark [5] stands for this setting: Homo sapiens, OPM-2, 16 h, read-out: OPM-2 10% FBS IC50 IP, OPM-2 cells, 10% FBS, 16 h incubation.
Setting [6] is: 0.1 nM Mcl-1(171-327), 0.05 nM biotin-Bim (51-76).
Setting [7] is: Homo sapiens, OPM-2, 16 h, read-out: OPM-2 10% FBS IC50 IP, OPM-2 cells, 10% FBS, 16 h, CellTiter-Glo.

Read-outs that look alike come from different tables or passages of the source.

Broadly, the IC50 is the concentration that inhibits the measured activity by half. For `C[C@@H]1[C@@H](C)C/C=C/[C@@](O)(c2ccc(F)nc2)[C@@H]2CC[C@H]2CN2C[C@@]3(CCCc4cc(Cl)ccc43)COc3ccc(cc32)C(=O)NS1(=O)=O` (single isomer, unassigned) [Example 100530], the results for the IC50 in test [1] (setting [3]) and in test [2] (setting [4]) were 448 nM and 0.171 nM, respectively.

For `C[C@@H]1[C@@H](C)C/C=C/[C@@](O)(CC#N)[C@@H]2CC[C@H]2CN2C[C@@]3(CCCc4cc(Cl)ccc43)COc3ccc(cc32)C(=O)NS1(=O)=O` [Example 100051, ((1S,3′R,6′R,7′S,8′E,11′S,12′R)-6-chloro-7′-hydroxy-11′,12′-dimethyl-13′,13′-dioxido-15′-oxo-3,4-dihydro-2H-spiro[naphthalene-1,22′-[20]oxa[13]thia[1,14]diazatetracyclo [14.7.2.0~3,6~.0~19,24~]pentacosa[8,16,18,24]tetraen]-7′-yl)acetonitrile], the half-inhibitory concentration (IC50) was determined as 502 nM in test [1] (setting [3]) and 0.217 nM in test [2].

As to `CO[C@]1(CN2CCN(C(C)C)[C@@H](C)C2)/C=C/C[C@H](C)[C@@H](C)S(=O)(=O)NC(=O)c2ccc3c(c2)N(C[C@@H]2CC[C@H]21)C[C@@]1(CCCc2cc(Cl)ccc21)CO3` [Example 337, (1S,3′R,6′R,7′R,8′E,11′S,12′R)-6-chloro-7′-methoxy-11′,12′-dimethyl-7′-(((3S)-3-methyl-4-(1-methylethyl)-1-piperazinyl)methyl)-3,4-dihydro-2H,15′H-spiro[naphthalene-1,22′-[20]oxa[13]thia[1′14]diazatetracyclo [14.7.2.0~3,6~.0~19,24~]pentacosa[8,16,18,24]tetraen]-15′-one 13′,13′-dioxide], the IC50 in test [1] (setting [5]) was 59 nM; in test [2] (setting [6]) it was 0.09 nM.

On to `CO[C@@]1(CCOS(C)(=O)=O)/C=C/C[C@H](C)[C@@H](C)S(=O)(=O)NC(=O)c2ccc3c(c2)N(C[C@@H]2CC[C@H]21)C[C@@]1(CCCc2cc(Cl)ccc21)CO3` [Example 100364, 2-((1S,3′R,6′R,7′S,8′E,11′S,12′R)-6-chloro-7′-methoxy-11′,12′-dimethyl-13′,13′-dioxido-15′-oxo-3,4-dihydro-2H-spiro[naphthalene-1,22′-[20]oxa[13]thia[1,14]diazatetracyclo [14.7.2.0~3,6~.0~19,24~]pentacosa[8,16,18,24]tetraen]-7′-yl)ethyl methanesulfonate], for which the results for the IC50 in test [1] (setting [7]) and in test [2] (setting [4]) were 1680 nM and 1.16 nM, respectively.

Turning to `C[C@@H]1[C@@H](C)CCC[C@@](O)(CO)[C@@H]2CC[C@H]2CN2C[C@@]3(CCCc4cc(Cl)ccc43)COc3ccc(cc32)C(=O)NS1(=O)=O` [Example 100053, (1S,3′R,6′R,7′S,11′S,12′R)-6-chloro-7′-hydroxy-7′-(hydroxymethyl)-11′,12′-dimethyl-3,4-dihydro-2H,15′H-spiro[naphthalene-1,22′-[20]oxa[13]thia[1,14]diazatetracyclo [14.7.2.0~3,6~.0~19,24~]pentacosa[16,18,24]trien]-15′-one 13′,13′-dioxide], the IC50 in test [1] (setting [7]) worked out at 609 nM; in test [2] (setting [4]), 0.294 nM.

Consider `C[C@@H]1[C@@H](C)C/C=C/[C@]2(CNCCO2)[C@@H]2CC[C@H]2CN2C[C@@]3(CCCc4cc(Cl)ccc43)COc3ccc(cc32)C(=O)NS1(=O)=O` [Example 134, (1S,3′R,6′R,7′R,8′E,11′S,12′R)-6-chloro-11′,12′-dimethyl-3,4-dihydro-2H,15′H-dispiro[naphthalene-1,22′-[20]oxa[13]thia[1,14]diazatetracyclo [14.7.2.0~3,6~.0~19,24~]pentacosa[8,16,18,24]tetraene-7′,2″-[1,4]oxazinan]-15′-one 13′,13′-dioxide], for which the IC50 in test [1] (setting [5]) was 3000 nM; in test [2] (setting [6]) it was 4.64 nM.

Regarding `CO[C@]1(C#CCN2CCOCC2)/C=C/C[C@H](C)[C@@H](C)S(=O)(=O)NC(=O)c2ccc3c(c2)N(C[C@@H]2CC[C@H]21)C[C@@]1(CCCc2cc(Cl)ccc21)CO3` [Example 100448, (1S,3′R,6′R,7′R,8′E,11′S,12′R)-6-chloro-7′-methoxy-11′,12′-dimethyl-7′-(3-(4-morpholinyl)-1-propyn-1-yl)-3,4-dihydro-2H,15′H-spiro[naphthalene-1,22′-[20]oxa[13]thia[1,14]diazatetracyclo [14.7.2.0~3,6~.0~19,24~]pentacosa[8,16,18,24]tetraen]-15′-one 13′,13′-dioxide], the IC50 stood at 1920 nM in test [1] (setting [3]) and 0.373 nM in test [2] (setting [4]).

With `C[C@@H]1[C@@H](C)CCC[C@@](O)(CN=[N+]=[N-])[C@@H]2CC[C@H]2CN2C[C@@]3(CCCc4cc(Cl)ccc43)COc3ccc(cc32)C(=O)NS1(=O)=O` (single isomer, unassigned) [Example 506], the IC50 in test [1] (read-out: OPM-2 10% FBS IC50 IP, OPM-2 cells, 10% FBS, 16 h incubation) came to 7430 nM; in test [2] (setting [6]), 3.8 nM.

For `C[C@@H]1[C@@H](C)C/C=C/[C@@](O)(Cc2ccncn2)[C@@H]2CC[C@H]2CN2C[C@@]3(CCCc4cc(Cl)ccc43)COc3ccc(cc32)C(=O)NS1(=O)=O` [Example 100152, (1S,3′R,6′R,7′S,8′E,11′S,12′R)-6-chloro-7′-hydroxy-11′,12′-dimethyl-7′-(4-pyrimidinylmethyl)-3,4-dihydro-2H,15′H-spiro[naphthalene-1,22′-[20]oxa[13]thia[1,14]diazatetracyclo [14.7.2.0~3,6~.0~19,24~]pentacosa[8,16,18,24]tetraen]-15′-one 13′,13′-dioxide], the IC50 turned out to be 377 nM in test [1] (setting [3]) and 0.449 nM in test [2] (setting [4]).

For the molecule `C[C@@H]1[C@@H](C)CCC[C@@](O)(Cc2ccncn2)[C@@H]2CC[C@H]2CN2C[C@@]3(CCCc4cc(Cl)ccc43)COc3ccc(cc32)C(=O)NS1(=O)=O` [Example 100113, (1S,3′R,6′R,7′R,11′S,12′R)-6-chloro-7′-hydroxy-11′,12′-dimethyl-7′-(4-pyrimidinylmethyl)-3,4-dihydro-2H,15′H-spiro[naphthalene-1,22′-[20]oxa[13]thia[1,14]diazatetracyclo [14.7.2.0~3,6~.0~19,24~]pentacosa[16,18,24]trien]-15′-one 13′,13′-dioxide], the IC50 in test [1] (setting [3]) was 70 nM; in test [2] (setting [4]), 0.182 nM.

As to `CCN(CC)C(=O)C[C@]1(O)CCC[C@H](C)[C@@H](C)S(=O)(=O)NC(=O)c2ccc3c(c2)N(C[C@@H]2CC[C@H]21)C[C@@]1(CCCc2cc(Cl)ccc21)CO3` [Example 100111, 2-((1S,3′R,6′R,7′R,11′S,12′R)-6-chloro-7′-hydroxy-11′,12′-dimethyl-13′,13′-dioxido-15′-oxo-3,4-dihydro-2H-spiro[naphthalene-1,22′-[20]oxa[13]thia[1,14]diazatetracyclo [14.7.2.0~3,6~.0~19,24~]pentacosa[16,18,24]trien]-7′-yl)-N,N-diethylacetamide], the IC50 in test [1] (setting [3]) turned out to be 687 nM; in test [2], 0.352 nM.

`COC[C@@H]1[C@@H](C)C/C=C/[C@](CN2CCN(C(C)(C)C)CC2)(OC)[C@@H]2CC[C@H]2CN2C[C@@]3(CCCc4cc(Cl)ccc43)COc3ccc(cc32)C(=O)NS1(=O)=O` [Example 174, (1S,3′R,6′R,7′S,8′E,11′S,12′S)-7′-((4-tert-butyl-1-piperazinyl)methyl)-6-chloro-7′-methoxy-12′-(methoxymethyl)-11′-methyl-3,4-dihydro-2H,15′H-spiro[naphthalene-1,22′-[20]oxa[13]thia[1,14]diazatetracyclo [14.7.2.0~3,6~.0~19,24~]pentacosa[8,16,18,24]tetraen]-15′-one 13′,13′-dioxide]: the IC50 in test [1] (setting [5]) was 639 nM; in test [2] (setting [6]), 0.322 nM.

Consider `C[C@@H]1[C@@H](C)CCC[C@]2(OCCS2)[C@@H]2CC[C@H]2CN2C[C@@]3(CCCc4cc(Cl)ccc43)COc3ccc(cc32)C(=O)NS1(=O)=O` (single isomer, unassigned) [Example 100116], for which the figures for the IC50 in test [1] (setting [7]) and in test [2] (setting [4]) were 5940 nM and 3.78 nM, respectively.

Take `C[C@@H]1[C@@H](C)C/C=C/[C@]2(CN(Cc3ccncc3)CCO2)[C@@H]2CC[C@H]2CN2C[C@@]3(CCCc4cc(Cl)ccc43)COc3ccc(cc32)C(=O)NS1(=O)=O` [Example 136, (1S,3′R,6′R,7′R,8′E,11′S,12′R)-6-chloro-11′,12′-dimethyl-4″- (4-pyridinylmethyl)-3,4-dihydro-2H,15′H-dispiro[naphthalene-1,22′-[20]oxa[13]thia[1,14]diazatetracyclo [14.7.2.0~3,6~.0~19,24~]pentacosa[8,16,18,24]tetraene-7′,2″-[1,4]oxazinan]-15′-one 13′,13′-dioxide]: the IC50 is 1020 nM in test [1] (setting [5]) and 4.7 nM in test [2] (setting [6]).

Regarding `CCO[C@@]1(CN2CCN(C3COC3)CC2)/C=C/C[C@H](C)[C@@H](C)S(=O)(=O)NC(=O)c2ccc3c(c2)N(C[C@@H]2CC[C@H]21)C[C@@]1(CCCc2cc(Cl)ccc21)CO3` [Example 106, (1S,3′R,6′R,7′S,8′E,11′S,12′R)-6-chloro-7′-ethoxy-11′12′-dimethyl-7′-((4-(3-oxetanyl)-1-piperazinyl)methyl)-3,4-dihydro-2H,15′H-spiro[naphthalene-1,22′-[20]oxa[13]thia[1,14]diazatetracyclo [14.7.2.0~3,6~.0~19,24~]pentacosa[8,16,18,24]tetraen]-15′-one 13′,13′-dioxide], the IC50 amounted to 308 nM in test [1] (setting [5]) and 0.299 nM in test [2] (setting [6]).
